Laboratory results from PMC8217813, “Bridging Computational Vaccinology and Vaccine Development Through Systematic Identification, Characterization, and Downselection of Conserved and Variable Circumsporozoite Protein CD4 T Cell Epitopes From Diverse Plasmodium falciparum Strains” (Frontiers in Immunology, 2021).
pIC50: −log10 of the molar value. Like-named read-outs stand apart in the source and are kept apart here. Peptide text beside a SMILES is read from it.

Experiments:
[1] = target: T1, HLA A*0301 (Homo sapiens, UniProt P04439); assay: In vitro class I HLA binding competition assay (fluorescence polarization); details: for IC50 (nM): allele A0301, cell-free competition with fluorescently labeled control peptide, fluorescence polarization at 72 hours
T1 construct: Pure Protein, LLC (ran the assay)

[2] = target: HLA B*4402 (Homo sapiens, UniProt P01889, A223V/A65T/A93T/A95T/D201E/D98Y/E176V/E187L/E204Q/E69K/G107R/H137Y/K202T/L105A/L119I/N104T/N87E/Q56L/Q94N/R106L/R155S/R180D/S101N/S121R/S35A/S48T/T118I/V36M/W191S/Y140D/Y91S); assay: as above; details: allele B4402; cell-free competition with fluorescently labeled control peptide, fluorescence polarization at 72 hours
Experimental: The cell-free class I HLA binding assay in use at Pure Protein, LLC allows for in vitro quantification of peptide-HLA binding affinity in a competition format. In this assay, a fluorescently labeled, high binding, control peptide is loaded onto 384-well ½-area plates along with unlabeled experimental peptides. To remove endogenous peptides and render the HLA A and B molecules receptive to binding, HLA is heated at 53°C for 15 minutes and immediately added to the assay. The mixture is then allowed to stand for three days. Once the mixture has reached steady equilibrium (at 72 hours), displacement of the high binding control peptide is measured through Fluorescence Polarization. Binding of experimental peptides is expressed as the percent inhibition of the labeled control peptide (experimental fluorescence / control fluorescence, multiplied by 100). The percent inhibition values for each experimental peptide (across a range of molar concentrations) are used to calculate the concentration which inhibits 50% of the labeled control peptide’s specific binding. This value is referred to as the peptide’s IC50.

[3] = target: T2, HLA A*0201 (Homo sapiens, UniProt P04439, D140Y/D185E/D98H/E176V/E277Q/G131W/G231S/I119V/I121R/I166T/I218V/L300P/L318F/N151K/N90K/P208A/P217A/Q86G/Q94H/R138H/R169H/T345S); assay: biochemical; type: binding
T2 construct: Pure Protein, LLC (ran the assay)

[4] = target: T3, HLA B*0702 (Homo sapiens, UniProt P01889); assay: biochemical; type: binding; details: allele B0702, cell-free competition with fluorescently labeled control peptide, fluorescence polarization at 72 hours; for pIC50: read-out: IC50
T3 construct: Pure Protein, LLC (ran the assay)

[5] = target: T4, HLA A*0101 (Homo sapiens, UniProt P04439, A114D/A174V/A182V/D101N/D185E/E176A/E190D/L180R/Q94H/R68K/S129P/T187R/V100A/V91M/W191G); assay: biochemical; type: binding; details: allele A0101, cell-free competition with fluorescently labeled control peptide, fluorescence polarization at 72 hours
T4 construct: Pure Protein, LLC (ran the assay)

[6] = allele A0201, cell-free competition with fluorescently labeled control peptide, fluorescence polarization at 72 hours, read-out: IC50

CC(C)C[C@H](NC(=O)[C@@H](N)CCCCN)C(=O)N[C@@H](CCCNC(=N)N)C(=O)N[C@@H](CCCCN)C(=O)N1CCC[C@H]1C(=O)N[C@@H](CCCCN)C(=O)N[C@@H](Cc1c[nH]cn1)C(=O)N[C@@H](CCCCN)C(=O)N[C@@H](CCCCN)C(=O)O [CL1-61]
pIC50 [1]: 5.51

NEEPSDQHI [Cluster 308_CVX99]
IC50 (nM) [2]: Non-Binder

CSCC[C@H](N)C(=O)N[C@@H](CCC(=O)O)C(=O)N[C@@H](CCCCN)C(=O)N[C@@H](CS)C(=O)N[C@@H](CO)C(=O)N[C@@H](CO)C(=O)N[C@H](C(=O)N[C@@H](Cc1ccccc1)C(=O)N[C@@H](CC(N)=O)C(=O)O)C(C)C [Cluster 371_3D7] (H-MEKCSSVFN-OH)
pIC50 [2]: 3.85

CC[C@H](C)[C@H](NC(=O)[C@H](CCCCN)NC(=O)[C@H](CCCCN)NC(=O)[C@H](CC(C)C)NC(=O)[C@@H](N)Cc1ccc(O)cc1)C(=O)N[C@@H](CCC(N)=O)C(=O)N[C@@H](Cc1ccc(O)cc1)C(=O)N[C@@H](CO)C(=O)N[C@@H](CC(C)C)C(=O)O [Cluster 319_ICS7] (H-YLKKIQYSL-OH)
pIC50 [3]: 5.59

CC[C@H](C)[C@H](NC(=O)[C@H](CCCCN)NC(=O)[C@H](CCCCN)NC(=O)[C@H](CCC(=O)O)NC(=O)[C@@H](NC(=O)[C@H](CC(=O)O)NC(=O)[C@H](CC(N)=O)NC(=O)[C@H](CCC(=O)O)NC(=O)[C@@H](N)Cc1ccc(O)cc1)[C@@H](C)CC)C(=O)O [Cluster 360_CVX298] (H-YENDIEKKI-OH)
pIC50 [2]: 5.13

KHIKEYLNK [Cluster 314_3D7]
IC50 (nM) [1]: Non-Binder

CC[C@H](C)[C@H](NC(=O)[C@@H](N)CCCNC(=N)N)C(=O)N[C@@H](CCCCN)C(=O)N1CCC[C@H]1C(=O)NCC(=O)N[C@@H](CO)C(=O)N[C@@H](C)C(=O)N[C@@H](CC(N)=O)C(=O)N[C@@H](CCCCN)C(=O)O [Cluster 345_3D7] (H-RIKPGSANK-OH)
pIC50 [1]: 4.67

CC[C@H](C)[C@H](NC(=O)[C@H](CCCCN)NC(=O)[C@H](CC(N)=O)NC(=O)[C@H](CC(C)C)NC(=O)[C@H](Cc1ccc(O)cc1)NC(=O)[C@H](CCC(=O)O)NC(=O)[C@H](CCCCN)NC(=O)[C@@H](NC(=O)[C@@H](N)Cc1c[nH]cn1)[C@@H](C)CC)C(=O)O [Cluster 315_3D7] (H-HIKEYLNKI-OH)
pIC50 [3, 6]: 3.59

LDYANDIEK [Cluster 358_3D7]
IC50 (nM) [1]: Non-Binder

CC[C@H](C)[C@H](NC(=O)[C@@H](N)CCCNC(=N)N)C(=O)N[C@@H](CCCCN)C(=O)N1CCC[C@H]1C(=O)NCC(=O)N[C@@H](CO)C(=O)N[C@@H](C)C(=O)N[C@@H](CC(=O)O)C(=O)N[C@@H](CCCCN)C(=O)O [Cluster 345_CVX79] (H-RIKPGSADK-OH)
pIC50 [1]: 4.75

KPGSANKPKD [Cluster 347_3D7]
IC50 (nM) [4]: Non-Binder

C[C@H](NC(=O)[C@H](CC(N)=O)NC(=O)[C@H](CC(N)=O)NC(=O)[C@H](C)NC(=O)[C@H](CC(N)=O)NC(=O)[C@H](C)NC(=O)[C@H](CC(N)=O)NC(=O)[C@H](CCC(=O)O)NC(=O)[C@@H](N)CC(=O)O)C(=O)O [Cluster 294_CVX311] (H-DENANANNA-OH)
pIC50 [2]: 3.05

CSCC[C@H](N)C(=O)N1CCC[C@H]1C(=O)N[C@@H](CC(N)=O)C(=O)N[C@@H](CC(=O)O)C(=O)N1CCC[C@H]1C(=O)N[C@@H](CC(N)=O)C(=O)N[C@@H](CCCNC(=N)N)C(=O)N[C@@H](CC(N)=O)C(=O)N[C@H](C(=O)O)C(C)C [Cluster 285_3D7]
pIC50 [4]: 3.29 | IC50 (nM) [2]: Non-Binder

KPGSADKPKD [347_CVX69 (10)]
IC50 (nM) [4]: Non-Binder

CC(C)C[C@H](N)C(=O)N[C@@H](CO)C(=O)N[C@H](C(=O)N[C@@H](CCC(=O)O)C(=O)N[C@@H](Cc1c[nH]c2ccccc12)C(=O)N[C@@H](CO)C(=O)N1CCC[C@H]1C(=O)N[C@@H](CS)C(=O)N[C@@H](CO)C(=O)N[C@H](C(=O)O)C(C)C)[C@@H](C)O [327_3D7 (10)] (H-LSTEWSPCSV-OH)
pIC50 [3, 6]: 5.36

NPNVDPNANP [Cluster 107_3D7]
IC50 (nM) [4]: Non-Binder

DENANANSA [Cluster 294_3D7]
IC50 (nM) [2]: Non-Binder

TEWSPCSVT [Cluster 329_3D7]
IC50 (nM) [2]: Non-Binder

QLDYANDIEK [Cluster 357_CVX111]
IC50 (nM) [1]: Non-Binder

NPNANPNAN [131_3D7 (9)]
IC50 (nM) [4]: Non-Binder

CC[C@H](C)[C@H](NC(=O)[C@H](CC(=O)O)NC(=O)[C@H](CC(N)=O)NC(=O)[C@H](C)NC(=O)[C@H](Cc1ccc(O)cc1)NC(=O)[C@H](CC(=O)O)NC(=O)[C@H](CC(C)C)NC(=O)[C@H](CCC(=O)O)NC(=O)[C@@H](N)CC(=O)O)C(=O)O [Cluster 356_3D7] (H-DELDYANDI-OH)
pIC50 [2]: 3.56

CC[C@H](C)[C@H](NC(=O)[C@H](CC(=O)O)NC(=O)[C@H](CC(N)=O)NC(=O)[C@H](C)NC(=O)[C@H](Cc1ccc(O)cc1)NC(=O)[C@H](CC(=O)O)NC(=O)[C@H](CC(C)C)NC(=O)[C@@H](N)CCC(=O)O)C(=O)N[C@@H](CCC(=O)O)C(=O)N[C@@H](CCCCN)C(=O)O [Cluster 357_3D7] (H-ELDYANDIEK-OH)
IC50 (nM) [5]: Non-Binder | pIC50 [1]: 3.25

CKMEKCSSV [369_3D7 (9)]
IC50 (nM) ([3]; allele A0201, cell-free competition with fluorescently labeled control peptide, fluorescence polarization at 72 hours): Non-Binder

NEEPSDKHIK [308_3D7 (10)]
IC50 (nM) [5]: Non-Binder | IC50 (nM) [2]: Non-Binder

NEEPSDKHI [308_3D7(9)]
IC50 (nM) [2]: Non-Binder

TEYLKKIQN [Cluster 317_ICS2]
IC50 (nM) [2]: Non-Binder

VTCGNGIQV [Cluster 336_3D7]
IC50 (nM) [5]: Non-Binder | IC50 (nM) [1]: Non-Binder

C[C@H](NC(=O)[C@H](CO)NC(=O)CNC(=O)[C@@H]1CCCN1C(=O)[C@@H](N)CCCCN)C(=O)NCC(=O)N[C@@H](CCCCN)C(=O)N[C@@H](CO)C(=O)N[C@@H](CCCCN)C(=O)O [347_CVX36 (9)] (H-KPGSAGKSK-OH)
pIC50 [4]: 4.27

CC[C@H](C)[C@H](NC(=O)[C@H](CC(=O)O)NC(=O)[C@H](CC(N)=O)NC(=O)[C@H](CCC(=O)O)NC(=O)[C@H](Cc1ccc(O)cc1)NC(=O)[C@H](CC(=O)O)NC(=O)[C@H](CC(C)C)NC(=O)[C@@H](N)CCC(N)=O)C(=O)N[C@@H](CCC(=O)O)C(=O)N[C@@H](CCCCN)C(=O)O [Cluster 357_CVX89] (H-QLDYENDIEK-OH)
pIC50 ([5]; read-out: IC50): 3.14 | IC50 (nM) [1]: Non-Binder

CC[C@H](C)[C@H](NC(=O)[C@H](CCCCN)NC(=O)[C@H](CCCCN)NC(=O)[C@H](CC(C)C)NC(=O)[C@H](Cc1ccc(O)cc1)NC(=O)[C@H](CCC(=O)O)NC(=O)[C@@H](NC(=O)[C@@H](NC(=O)[C@@H](N)Cc1c[nH]cn1)[C@@H](C)CC)[C@@H](C)O)C(=O)O [Cluster 315_ICS2] (H-HITEYLKKI-OH)
pIC50 [3]: 3.83

NANPNANPNK [Cluster 265_3D7]
IC50 (nM) [1]: Non-Binder

SPCSVTCGNG [Cluster 332_3D7]
IC50 (nM) [4]: Non-Binder

CC[C@H](C)[C@H](N)C(=O)N[C@@H](CCC(=O)O)C(=O)N[C@@H](CCC(N)=O)C(=O)N[C@@H](Cc1ccc(O)cc1)C(=O)N[C@@H](CC(C)C)C(=O)N[C@@H](CCCCN)C(=O)N[C@@H](CCCCN)C(=O)N[C@H](C(=O)N[C@@H](CCC(N)=O)C(=O)N[C@@H](Cc1ccc(O)cc1)C(=O)O)[C@@H](C)CC [Cluster 316_ICS7] (H-IEQYLKKIQY-OH)
IC50 (nM) [5]: Non-Binder | pIC50 [2]: 3.80

KMEKCSSVF [Cluster 370_3D7]
IC50 (nM) [5]: Non-Binder | IC50 (nM) [4]: Non-Binder

CC[C@H](C)[C@H](NC(=O)[C@H](CCCNC(=N)N)NC(=O)[C@@H](NC(=O)[C@@H](N)CCC(N)=O)C(C)C)C(=O)N[C@@H](CCCCN)C(=O)N1CCC[C@H]1C(=O)NCC(=O)N[C@@H](CO)C(=O)N[C@@H](C)C(=O)O [Cluster 343_3D7] (H-QVRIKPGSA-OH)
pIC50 [4]: 3.87

IEKKICKMEK [Cluster 364_3D7]
IC50 (nM) [1]: Non-Binder

KEYLNKIQNS [Cluster 317_3D7]
IC50 (nM) [2]: Non-Binder

KDELDYENDI [Cluster 355_CVX124]
IC50 (nM) [2]: Non-Binder

NPNANPNANP [131_3D7 (10)]
IC50 (nM) [4]: Non-Binder
